Experimental data taken from patent EP0190597A2, “Retro-inverso analogs of the bradykinin potentiating peptide bpp 5a” (SCLAVO S.p.A., priority 1985, dated 1986).

Molecular target: angiotensin converting enzyme
Assay: Inhibition of angiotensin converting enzyme (method of Cushman and Cheung)
Format: biochemical, rabbit
Conditions: in vitro; ratio of IC50 versus BPP5a or Glp-Lys-Phe-Ala-Pro-OH
Source text: In particular, comparative experiments carried out […] in order to evaluate the ACE inhibitory activity of the compounds of the present invention gave the results reported in following table I (IC50 represents the concentration of the test compound, in µM, which inhibits the angiotensin converting enzyme by 50%. The enzyme employed in this test has been isolated from rabbit lungs according to the method by Cushman and Cheung described in Biochem. Pharmacol. 2Q, 1637, (1971)).

Glp--Lys-gPhe-mAla-Pro-OH
IC50 times higher than that of the natural product (BPPSa) or the corresponding uninverted peptide Glp-Lys-Phe-Ala-Pro-OH: more than 1000 times
